We go through seven compounds from patent US9872493B2, “Method for promoting plant growth” (SUMITOMO CHEMICAL COMPANY, LIMITED, priority 2012, dated 2018).

Each structure is given as a SMILES string. Where two headings read alike, the source gives them in different places.

The test has as its system Nicotiana benthamiana. The test is described as follows: Test for evaluating growth promotion under low-temperature stress by hydroponics of Nicotiana benthamiana (Test Examples 4-6). The format is in vivo. As to conditions: read-out: value of a relative leaf area (equation (1)); for relative green leaf area after low-temperature stress at 0.1 ppm: compound at 0.1 ppm; for relative green leaf area after low-temperature stress at 10 ppm: compound at 10 ppm. On the procedure: A DMSO solution, which contained one of the compounds 5, 14, 22, 23, 24, 25, 26, 28, 30, 31, 32, 33, 34, 35, 38, 39 and 40 of the present invention at a concentration of 10,000 ppm, was prepared. The DMSO solution of the compound of the present invention was added at a volume ratio of 1/1,000 to the Murashige•Scoog medium of a ½-fold concentration (a medium containing 2.3 g of mixed salts (manufactured by Wako Pure Chemical Industries, Ltd.), 200 mg of Myo-inositol (manufactured by Sigma-Aldrich Co. LLC.), 2 mg of nicotinic acid (manufactured by Wako Pure Chemical Industries, Ltd.), 2 mg of pyridoxine hydrochloride (manufactured by Wako Pure Chemical Industries, Ltd.), 20 mg of thiamine hydrochloride (manufactured by Wako Pure Chemical Industries, Ltd.), 20 g of sucrose (manufactured by Wako Pure Chemical Industries, Ltd.), and 1 g of MES (manufactured by DOJINDO LABORATORIES) per 1 L of water and having pH adjusted to 5.8), thereby preparing a medium containing the compound of the present invention at a concentration of 10 ppm.
Seeds of Nicotiana benthamiana were seeded in the 5 μL of the medium and cultured overnight at 22° C. Thereafter, 45 μL of the medium containing the compound of the present invention at a concentration of 10 ppm was added thereto, and the seeds are cultivated for 7 days at 22° C., an illuminance of 4,000 lux, and a day length of 16 hours, thereby the nursery plants raised from the Nicotiana benthamiana were treated with the compound.
Moreover, instead of the above medium a test plot, which was obtained by performing the same treatment by using a medium prepared by adding DMSO to the Murashige•Scoog medium of ½-fold concentration at a volume ratio of 1/1,000, was used as a control plot not treated with the compound.
The nursery plants of the Nicotiana benthamiana treated with the compound were subjected to low-temperature treatment by being cultivated for 7 days at 1.5±1.0° C., an illuminance of 2,000 lux, and a day length of 16 hours.
The nursery plants of the Nicotiana benthamiana having undergone the low-temperature stress treatment were cultivated for 3 days at 22° C., an illuminance of 4,000 lux, and a day length of 16 hours. Thereafter, the area of green leaf was quantified by Scanalyzer HTS (manufactured by LemnaTec GmbH). Moreover, the value of the control plot not treated with the compound that had not yet been subjected to the low-temperature stress treatment was measured in the same manner. A value of a relative leaf area was calculated based on the following equation (1), and if the value of a relative leaf area was 5 or greater, the compound was evaluated to have a mitigating effect. As a result of the evaluation, it was confirmed that when the plant was treated with one of the compounds 5, 14, 22, 23, 24, 25, 26, 28, 30, 31, 32, 33, 34, 35, 38, 39 and 40 of the present invention at 10 ppm, the value of a relative leaf area was 5 or greater, compared to the area of green leaf of the control plot not treated with compound. Accordingly, it was confirmed that the treatment using the compound of the present invention brings about a growth promotion effect. Relative leaf area=100*(a green area of a plot treated with the compound of the present invention−a green area of a control plot not treated with the compound of the present invention)/(a green area of a control plot not treated with the compound of the present invention that has not yet been subjected to low-temperature stress treatment−a green area of a control plot not treated with the compound of the present invention) Equation (1): […]
A DMSO solution, which contained one of the compounds 6, 7, 8, 11, 12, 15, 19, 23, 24, 25, 28, 30, 31, 33, 34, 36, 37, 38 and 39 of the present invention at a concentration of 1,000 ppm, was prepared. […]

[1] abbreviates: 7 days at 1.5±1.0° C. low-temperature stress, then 3 days at 22° C., green leaf area vs untreated control.
Where [2] appears, read: compound at 1 ppm, 7 days at 1.5±1.0° C. low-temperature stress, then 3 days at 22° C., green leaf area vs untreated control.

Take `O=C(Nc1ccccc1)c1csc2cc(C(F)(F)F)ccc12` [Compound 32]: under setting [1], the relative green leaf area after low-temperature stress at 0.1 ppm is at least 5% and the relative green leaf area after low-temperature stress at 10 ppm was at least 5%. Consider `COC(=O)c1ccc2sccc2c1` [Compound 5, methyl benzo[b]thiophene-5-carboxylate], for which the relative green leaf area after low-temperature stress at 10 ppm under setting [1] is at least 5%.

In the case of `CCOC(=O)c1c(C(F)(F)F)sc2ccccc12` [Compound 22], under setting [1], the relative green leaf area after low-temperature stress at 0.1 ppm is at least 5% and the relative green leaf area after low-temperature stress at 10 ppm was at least 5%. As for `NC(=O)c1cccc2cc(C(F)(F)F)sc12` [Compound 11, 2-trifluoromethylbenzo[b]thiophene-7-carboxamide], the relative green leaf area after low-temperature stress at 1 ppm is at least 5%. `COC(=O)c1cccc2sc(C(F)(F)F)cc12` [Compound 2, methyl 2-trifluoromethylbenzo[b]thiophene-4-carboxylate]: the relative green leaf area after low-temperature stress at 0.1 ppm under setting [1] is at least 5%.

Take `CNC(=O)c1c(C(F)(F)F)sc2ccccc12` [Compound 24]: the relative green leaf area after low-temperature stress at 1 ppm under setting [2] was at least 5%. For the same compound, the relative green leaf area after low-temperature stress at 10 ppm under setting [1] was at least 5%. For `O=C(NCc1ccccc1)c1csc2cc(C(F)(F)F)ccc12` [Compound 33], under setting [1], the relative green leaf area after low-temperature stress at 0.1 ppm is at least 5% and the relative green leaf area after low-temperature stress at 10 ppm was at least 5%. Moreover, under setting [2], the relative green leaf area after low-temperature stress at 1 ppm was at least 5%.
